Assay results published in the NIST ThermoML archive (doi:10.1016/j.jct.2014.07.023).
Where “and” joins values, the source holds several entries; their conditions need not be identical. Identical values can stand only once. ± gives the expanded uncertainty stated by the source.

Tests used:
[1] = molar heat capacity at constant pressure; conditions: 101.33 kPa, Liquid, Small sample (50 mg) DSC
[2] = molar heat capacity at constant pressure; xn = mol fraction of the nth substance listed; conditions: 100 kPa, Liquid, Small sample (50 mg) DSC, x2 = 0

SMILES | molar heat capacity at constant pressure ([1]; 293.15 K) [J/K/mol] | molar heat capacity at constant pressure ([1]; 298.15 K) | molar heat capacity at constant pressure ([1]; 303.15 K) [J/K/mol] | molar heat capacity at constant pressure ([1]; 308.15 K) [J/K/mol] | molar heat capacity at constant pressure ([1]; 313.15 K) [J/K/mol] | molar heat capacity at constant pressure ([1]; 318.15 K) [J/K/mol] | molar heat capacity at constant pressure ([1]; 323.15 K) [J/K/mol] | molar heat capacity at constant pressure ([2]; 293.15 K) [J/K/mol] | molar heat capacity at constant pressure ([2]; 298.15 K) [J/K/mol] | molar heat capacity at constant pressure ([2]; 303.15 K) [J/K/mol] | molar heat capacity at constant pressure ([2]; 308.15 K) [J/K/mol] | molar heat capacity at constant pressure ([2]; 313.15 K) [J/K/mol] | molar heat capacity at constant pressure ([2]; 318.15 K) [J/K/mol] | molar heat capacity at constant pressure ([2]; 323.15 K) [J/K/mol]
CCC(O)CO (stereo not drawn) [1,2-butanediol] | 228.1 ± 9.6 | 230.82 ± 9.8 J/K/mol and 230.8 ± 9.8 J/K/mol | 233.5 ± 9.9 | 236.21 ± 10 | 238.91 ± 10 | 241.52 ± 10 | 244.23 ± 10 |  |  |  |  |  |  | 
CO [methanol] | 80.46 ± 3.4 | 81.38 ± 3.5 J/K/mol and 81.39 ± 3.5 J/K/mol | 82.38 ± 3.5 | 83.44 ± 3.5 | 84.56 ± 3.6 | 85.78 ± 3.7 | 87.03 ± 3.7 |  |  |  |  |  |  | 
CO [methanol] + CCC(O)CO |  |  |  |  |  |  |  | 80.46 ± 3.4 | 81.39 ± 3.5 | 82.38 ± 3.5 | 83.44 ± 3.5 | 84.56 ± 3.6 | 85.78 ± 3.7 | 87.03 ± 3.7
CO [methanol] + OCCCCO |  |  |  |  |  |  |  | 80.46 ± 3.4 | 81.39 ± 3.5 | 82.38 ± 3.5 | 83.44 ± 3.5 | 84.56 ± 3.6 | 85.78 ± 3.7 | 87.03 ± 3.7
OCCCCO [1,4-butanediol] | 201.15 ± 8.6 | 203.79 ± 8.7 J/K/mol and 203.76 ± 8.7 J/K/mol | 206.56 ± 8.7 | 209.44 ± 8.9 | 212.33 ± 9 | 215.39 ± 9.1 | 218.54 ± 9.3 |  |  |  |  |  |  | 
CC(O)CCO (stereo not drawn) [1,3-butanediol] | 215.84 ± 9.2 | 218.89 ± 9.3 J/K/mol and 218.9 ± 9.3 J/K/mol | 222.06 ± 9.5 | 225.21 ± 9.6 | 228.37 ± 9.7 | 231.61 ± 9.8 | 234.86 ± 10 |  |  |  |  |  |  | 
CO [methanol] + CC(O)C(C)O |  |  |  |  |  |  |  | 80.46 ± 3.4 | 81.39 ± 3.5 | 82.38 ± 3.5 | 83.44 ± 3.5 | 84.56 ± 3.6 | 85.78 ± 3.7 | 87.03 ± 3.7
CC(O)C(C)O (stereo not drawn) [2,3-butanediol] | 233.95 ± 9.9 | 236.66 ± 10 J/K/mol and 236.63 ± 10 J/K/mol | 239.36 ± 10 | 242.07 ± 10 | 244.77 ± 10 | 247.47 ± 11 | 250.18 ± 11 |  |  |  |  |  |  | 
CO [methanol] + CC(O)CCO |  |  |  |  |  |  |  | 80.46 ± 3.4 | 81.39 ± 3.5 | 82.38 ± 3.5 | 83.44 ± 3.5 | 84.56 ± 3.6 | 85.78 ± 3.7 | 87.03 ± 3.7
